Data taken from patent US7687481B2, “Cannabinoid receptor antagonists/inverse agonists useful for treating obesity” (Jenrin Discovery, Inc., priority 2006, dated 2010).
Where two headings read alike, the source gives them in different places.

How the values were obtained:
[1] = target: T1, human cannabinoid CB1 receptor (Homo sapiens, UniProt P21554); assay: CB1 receptor affinity, [3H]CP-55,940 radioligand binding to CHO cell membranes
T1 construct: expressed in transfected cells; host or cells: Chinese hamster ovary (CHO) cells, stably transfected; membrane preparation
T1 sequence (P21554 whole entry): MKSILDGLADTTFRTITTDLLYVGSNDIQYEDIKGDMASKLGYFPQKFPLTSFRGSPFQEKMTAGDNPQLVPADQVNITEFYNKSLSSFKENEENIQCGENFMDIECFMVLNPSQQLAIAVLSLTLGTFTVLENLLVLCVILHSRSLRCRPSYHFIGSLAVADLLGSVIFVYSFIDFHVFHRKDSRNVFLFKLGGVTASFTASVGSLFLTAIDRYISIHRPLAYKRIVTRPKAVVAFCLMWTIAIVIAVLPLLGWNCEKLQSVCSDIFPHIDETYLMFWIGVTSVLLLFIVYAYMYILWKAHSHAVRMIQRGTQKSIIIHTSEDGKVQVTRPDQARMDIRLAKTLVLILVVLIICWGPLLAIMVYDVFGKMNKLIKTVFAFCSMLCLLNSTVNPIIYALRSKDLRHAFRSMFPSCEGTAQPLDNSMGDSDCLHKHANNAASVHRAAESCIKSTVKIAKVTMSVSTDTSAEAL
Method: CB1 receptor affinities can be determined using membrane preparations of Chinese hamster ovary (CHO) cells in which the human cannabinoid CB1 receptor is stably transfected (Biochem J. 1991, 279, 129-134) in conjunction with [3H]CP-55,940 as radioligand. After incubation of a freshly prepared cell membrane preparation with the [3H]-radioligand, with or without addition of test compound, separation of bound and free ligand is performed by filtration over glass fiber filters. Radioactivity on the filter is measured by liquid scintillation counting. The IC50 values can be determined from at least three independent measurements.
Tables A-E below describe selected examples of the present invention that have been synthesized and tested. The activities of these compounds are as follows: • +=an IC50 of ≦10 μM; • ++=IC50 of ≦1 μM; and, • +++=an IC50 ≦100 nM.

[2] = usually not maintained; cited from earlier work
[3] = cited from earlier work
[4] = Table A, read-out: CB1 Receptor Activity
[5] = Table B, read-out: CB1 Receptor Activity
[6] = Table C, read-out: CB1 Receptor Activity
[7] = Table E, read-out: CB1 Receptor Activity

Structure (SMILES) | IC50 [1, 4] | IC50 [1, 5] | also measured
CCOC(=O)CNC(=O)c1nn(-c2ccc(Cl)cc2Cl)c(-c2ccc(Cl)cc2)c1C [Example A-1] | < 10000 nM |  | 
CCOC(=O)C(Cc1ccccc1)NC(=O)c1nn(-c2ccc(Cl)cc2Cl)c(-c2ccc(Cl)cc2)c1C (stereo not shown) [Example A-2] | < 1000 nM |  | 
CCOC(=O)CCNC(=O)c1nn(-c2ccc(Cl)cc2Cl)c(-c2ccc(Cl)cc2)c1C [Example A-3] | < 10000 nM |  | 
Cc1c(C(=O)NC(Cc2ccccc2)C(=O)O)nn(-c2ccc(Cl)cc2Cl)c1-c1ccc(Cl)cc1 (stereo not shown) [Example A-4] | < 10000 nM |  | 
CCOC(=O)CCCNC(=O)c1nn(-c2ccc(Cl)cc2Cl)c(-c2ccc(Cl)cc2)c1C [Example A-5] | < 10000 nM |  | 
CCOC(=O)CC(C)NC(=O)c1nn(-c2ccc(Cl)cc2Cl)c(-c2ccc(Cl)cc2)c1C (stereo not shown) [Example A-6] | < 1000 nM |  | 
CCOC(=O)C(C)NC(=O)c1nn(-c2ccc(Cl)cc2Cl)c(-c2ccc(Cl)cc2)c1C (stereo not shown) [Example A-7] | < 1000 nM |  | 
CCOC(=O)C(CC(C)C)NC(=O)c1nn(-c2ccc(Cl)cc2Cl)c(-c2ccc(Cl)cc2)c1C (stereo not shown) [Example A-8] |  |  | IC50 [1]: < 100 nM
Cc1c(C(=O)NC(CC(C)C)C(=O)O)nn(-c2ccc(Cl)cc2Cl)c1-c1ccc(Cl)cc1 (stereo not shown) [Example A-9] | < 1000 nM |  | 
CCOC(=O)C(NC(=O)c1nn(-c2ccc(Cl)cc2Cl)c(-c2ccc(Cl)cc2)c1C)C(C)CC (stereo not shown) [Example A-10] | < 100 nM |  | 
CCOC(=O)C(NC(=O)c1nn(-c2ccc(Cl)cc2Cl)c(-c2ccc(Cl)cc2)c1C)C(C)(C)C (stereo not shown) [Example A-11] |  |  | IC50 [1]: < 100 nM
Cc1c(C(=O)NC(C(=O)O)C(C)(C)C)nn(-c2ccc(Cl)cc2Cl)c1-c1ccc(Cl)cc1 (stereo not shown) [Example A-12] | < 100 nM |  | 
Cc1c(C(=O)NCCC(N)=O)nn(-c2ccc(Cl)cc2Cl)c1-c1ccc(Cl)cc1 [Example B-1] |  | < 10000 nM | 
Cc1c(C(=O)NC(C)CC(N)=O)nn(-c2ccc(Cl)cc2Cl)c1-c1ccc(Cl)cc1 (stereo not shown) [Example B-2] |  | < 10000 nM | 
Cc1c(C(=O)NC(CC(C)C)C(N)=O)nn(-c2ccc(Cl)cc2Cl)c1-c1ccc(Cl)cc1 (stereo not shown) [Example B-3] |  | < 1000 nM | 
CCC(C)C(NC(=O)c1nn(-c2ccc(Cl)cc2Cl)c(-c2ccc(Cl)cc2)c1C)C(N)=O (stereo not shown) [Example B-4] |  | < 100 nM | 
Cc1c(C(=O)NC(Cc2ccccc2)C(N)=O)nn(-c2ccc(Cl)cc2Cl)c1-c1ccc(Cl)cc1 (stereo not shown) [Example B-5] |  | < 100 nM | 
Cc1c(C(=O)NCc2cccc(C(N)=O)c2)nn(-c2ccc(Cl)cc2Cl)c1-c1ccc(Cl)cc1 [Example B-6] |  | < 1000 nM | 
Cc1c(C(=O)NCc2ccc(C(N)=O)cc2)nn(-c2ccc(Cl)cc2Cl)c1-c1ccc(Cl)cc1 [Example B-7] |  | < 1000 nM | 
Cc1c(C(=O)NCc2cccc(C(=N)N)c2)nn(-c2ccc(Cl)cc2Cl)c1-c1ccc(Cl)cc1 [Example B-8] |  | < 1000 nM | 
Cc1c(C(=O)NCc2ccc(C(=N)N)cc2)nn(-c2ccc(Cl)cc2Cl)c1-c1ccc(Cl)cc1 [Example B-9] |  | < 10000 nM | 
Cc1c(C(=O)NC(C(N)=O)C(C)(C)C)nn(-c2ccc(Cl)cc2Cl)c1-c1ccc(Cl)cc1 (stereo not shown) [Example B-10] |  |  | IC50 [1]: < 100 nM
CCOC(=O)C1CCCN(NC(=O)c2nn(-c3ccc(Cl)cc3Cl)c(-c3ccc(Cl)cc3)c2C)C1 (stereo not shown) [Example C-1] |  |  | IC50 [1, 6]: < 1000 nM
CCOC(=O)C1CCN(NC(=O)c2nn(-c3ccc(Cl)cc3Cl)c(-c3ccc(Cl)cc3)c2C)CC1 [Example C-2] |  |  | IC50 [1, 6]: < 1000 nM
Cc1c(C(=O)NN2CCCC(C(N)=O)C2)nn(-c2ccc(Cl)cc2Cl)c1-c1ccc(Cl)cc1 (stereo not shown) [Example C-3] |  |  | IC50 [1, 6]: < 100 nM
CCOC(=O)C1CCC(NC(=O)c2nn(-c3ccc(Cl)cc3Cl)c(-c3ccc(Cl)cc3)c2C)CC1 (stereo not shown) [Example E-1] |  |  | IC50 [1, 7]: < 10000 nM
Cc1c(C(=O)NC2CCC(C(N)=O)CC2)nn(-c2ccc(Cl)cc2Cl)c1-c1ccc(Cl)cc1 (stereo not shown) [Example E-2] |  |  | IC50 [1, 7]: < 10000 nM
CCCCCCCCCCC[C@@H](C[C@@H]1OC(=O)[C@H]1CCCCCC)OC(=O)[C@H](CC(C)C)NC=O [orlistat] |  |  | initial weight loss compared to placebo [2]: approximately 5%
Cc1c(C(=O)NN2CCCCC2)nn(-c2ccc(Cl)cc2Cl)c1-c1ccc(Cl)cc1 [rimonabant] |  |  | side effects ([3]; dose-related, most pronounced at the most efficacious weight-reducing dose): psychiatric and nervous system side effects; weight loss ([3]; obese patients): clinically meaningful weight loss
CC(C)CC(N(C)C)C1(c2ccc(Cl)cc2)CCC1 (stereo not shown) [sibutramine] |  |  | initial weight loss compared to placebo [2]: approximately 5%
